Several values for one entry are separate records, joined by “and”; a condition that tells them apart may be missing. Equal entries are not always repeated.
Legend:
[1] = test system: BMDMs from NOD.hALOX12 mice; experiment: RNA sequencing of M0 and M1-like polarized BMDMs; assay type: cell-based, mouse; conditions: sheet Fig 5G; 4 replicates; listed as VLX
Source text: BMDMs were unpolarized (M0) or polarized to an M1-like state (with lipopolysaccharide and IFN-γ) to mimic the inflammatory state that might be observed during T1D pathogenesis.
These common genes mapped to pathways related to cytokine-mediated signaling, T cell activation, and antigen processing and presentation (Supplemental Figure 3B). […] The 507 genes altered with vehicle treatment mapped to GO pathways related to the M1 polarization phenotype (myeloid cell differentiation, immune response, response to cytokines) and pathways related to oxidative stress (cell redox homeostasis, response to hydrogen peroxides) (Figure 5E). These pathways were not identified in the genes that were differentially expressed during VLX-1005 treatment.
BMDMs were isolated from 8-week-old NOD.hALOX12 mice as described previously ([2]). The isolated BMDMs were cultured for 7 days in complete medium (RPMI 1640 containing 10% FBS, 10 mM HEPES, and 100 U/mL penicillin/streptomycin) supplemented with 10 ng/mL M-CSF. […] After 1-hour pretreatment, the BMDMs were further stimulated with 10 ng/mL LPS and 25 ng/mL IFN-γ for 18 hours for M1-like polarization. RNA was isolated and used for sequencing.
RNA extraction was performed using RLT Buffer, according to the manufacturer’s instructions (Qiagen). Samples were submitted for library generation and sequencing by the University of Chicago sequencing core using a NovaSeq 6000 (Illumina). Data were analyzed using Galaxy (https://usegalaxy.org/). Reads were aligned to the Mus musculus genome build mm10 using HISAT2 (https://daehwankimlab.github.io/hisat2/). Individual sample reads were quantified using HTseq-count and normalized using DESeq2 (https://bioconductor.org/packages/release/bioc/html/DESeq2.html). DEseq2 was also used to calculate FCs and P values and to perform optional covariate correction. GO was used for pathway analysis.

NOD.hALOX12 mice [2] = experiment: NanoString spatial proteomics of insulitic and insulin-positive areas in NOD.hALOX12 mice; assay type: in vivo, mouse
Source text: To specifically interrogate the nature of immune cells within the insulitic region, we performed spatial tissue-based proteomics (NanoString). We used insulin immunostaining and nuclei staining to identify β cells and the surrounding insulitic regions. Prevalidated antibodies in the GeoMx mouse immune panel were used to probe for immune cell subtypes in the peri-islet insulitic region and within the islet. […] This reduction in myeloid cell populations was accompanied by a decrease in T and B cells populations, including CD4^+, CD3^+, CD8^+, and CD19^+ cells (Figure 2F and Supplemental Figure 2, A and B). […] Enhanced PD-L1/PD-1 interactions shift T cells to less aggressive, more regulatory phenotypes ([21]).
Paraffin embedded pancreata were used for NanoString spatial proteomics analysis. Tissues were stained with morphology markers: AF-647–conjugated insulin (Cell Signaling Technology, 9008s; 1:400) and nuclei marker (SYTO13). Tissues were hybridized using a pre-validated mouse GeoMx Immune cell panel (NanoString, GMX-PROCONCT-MICP) comprising the following markers: PD-1, CD11c, CD8a, PanCk, MHC II, CD19, CTLA4, SMA, CD11b, CD3e, fibronectin, Ki-67, CD4, GZMB, F4/80, CD45, PD-L1; housekeeping genes: histone H3, S6, GAPDH; and IgG antibodies: Rb IgG, Rat IgG2a, and Rat IgG2b for background subtraction. All markers were conjugated to unique UV-photocleavable oligos for indexing. At least 5 or 6 islets with insulitis were chosen as regions of interest (ROIs) per mouse based on the morphology markers (insulin and nuclei). The ROIs were segmented into insulitic region and insulin^+ region for each islet. Oligonucleotides from the segmented ROIs were photocleaved, collected in a 96-well plate, and reads were counted using nCounter (NanoString). Scaling was performed to normalize for any differences in tissue surface area and depth. After scaling, reads were normalized to housekeeping markers and background was subtracted using IgG markers.

NOD.hALOX12 mice [3] = experiment: Diabetes treatment (reversal) in diabetic female NOD.hALOX12 mice; assay type: in vivo, mouse; conditions: 30 mg/kg/day p.o. up to 6 weeks
Description: Mice were followed for diabetes development (blood glucose ≥250 mg/dL on 2 consecutive days) until 25 weeks of age (Figure 3A).
For diabetes treatment studies, female NOD.hALOX12 mice were followed for random-fed blood glucose from 12 to 20 weeks of age.

[4] = Insulitic Area, Fig 2F source data, individual values
[5] = female NOD.hALOX12 mice, 30 mg/kg p.o., 4 weeks
[6] = sheet SFig 2A, individual regions of interest

Structure (SMILES): COc1cccc(CNc2ccc(S(=O)(=O)Nc3nc4ccccc4s3)cc2)c1O [VLX-1005]
- Tank expression (heat map value) [1]: 2.305 and 1.708 and 1.675 and 0.8815
- Tlr6 expression (heat map value) [1]: 2.235 and 2.002 and 1.489 and 1.453
- Tmem126a expression (heat map value) [1]: 0.7845 and 0.7743 and 0.7659 and 0.465
- Tomm70a expression (heat map value) [1]: 1.572 and 1.428 and 1.219 and 1.127
- Ttll12 expression (heat map value) [1]: 2.1636 and 1.773 and 1.7 and 1.671
- Ube2k expression (heat map value) [1]: 1.475 and 1.413 and 1.263 and 1.205
- CD11b (NOD.hALOX12 mice [2]; [4]): 5.147 and 5.277 and 5.327 and 5.94 and 5.07 and 5.565 and 5.634 and 5.068 and 4.855 and 6.029
- CD11c (NOD.hALOX12 mice [2]; [4]): 2.876 and 1.502 and 2.598 and 4.232 and 2.537 and 2.93 and 3.146 and 2.8254 and 2.641 and 4.743
- CD45 (first CD45 row) (NOD.hALOX12 mice [2]; [4]): 5.25 and 3.49 and 3.636 and 8.487 and 3.645 and 3.942 and 4.828 and 3.892 and 3.054 and 8.111
- CD45 (second CD45 row) (NOD.hALOX12 mice [2]; [4]): -0.2135 and 0.0264 and 0.3853 and 4.031 and -1.253 and 0.3826 and 0.2212 and -1.155 and 0.06453 and 3.867
- CTLA4 (NOD.hALOX12 mice [2]; [4]): 1.939 and 2.368 and 2.417 and 1.307 and 2.276 and 2.4212 and 3.583 and 2.587 and 3.2171 and 2.563
- F4/80 (NOD.hALOX12 mice [2]; [4]): 0.2536 and 0.7983 and 1.224 and 1.023 and -0.1728 and 1.356 and 2.254 and 0.8327 and -0.1455 and 1.282
- GZMB (NOD.hALOX12 mice [2]; [4]): 4.352 and 4.4072 and 5.2506 and 2.9798 and 5.432 and 6.733 and 6.076 and 5.882 and 4.529 and 3.344
- MHC II (NOD.hALOX12 mice [2]; [4]): -0.6174 and 1.207 and 0.8883 and -0.3662 and -0.4066 and -0.144 and -0.3371 and 1.073 and -0.07508 and -1.247
- PD-1 (NOD.hALOX12 mice [2]; [4]): -0.3236 and 0.1793 and 1.041 and 1.538 and -1.244 and -0.5413 and -0.07496 and 0.52 and -0.1742 and 0.5415
- PD-L1 (NOD.hALOX12 mice [2]; [4]): 1.897 and 1.722 and 1.56 and 0.2193 and 1.6509 and 2.371 and 2.045 and 2.4831 and 1.059 and 0.2909
- Myeloid population subtypes (macrophages, dendritic cells) in insulitic and islet areas (NOD.hALOX12 mice [2]; [5]): notable reduction
- PD-L1 levels (spatial proteomics) (NOD.hALOX12 mice [2]; [5]): increased levels
- T and B cell populations (CD4+, CD3+, CD8+, CD19+) in insulitic and islet areas (NOD.hALOX12 mice [2]; [5]): decrease
- CD4 (NOD.hALOX12 mice [2]; [6]): 0.3826 and 0.2212 and -1.155 and 0.06453 and 3.867 and -0.2135 and 0.0264 and 0.3853 and 4.031 and -1.253
- CD8 (NOD.hALOX12 mice [2]; [6]): 1.856 and 1.666 and 1.577 and 1.141 and 2.8916 and 1.46 and 1.4593 and 2.166 and 2.266 and 1.44
- CD11b (NOD.hALOX12 mice [2]; [6]): 5.565 and 5.634 and 5.068 and 4.855 and 6.029 and 5.147 and 5.277 and 5.327 and 5.94 and 5.07
- CD11c (NOD.hALOX12 mice [2]; [6]): 2.93 and 3.146 and 2.8254 and 2.641 and 4.743 and 2.876 and 1.502 and 2.598 and 4.232 and 2.537
- CD19 (NOD.hALOX12 mice [2]; [6]): 0.2718 and 0.8536 and 0.6292 and 1.249 and 2.864 and 0.1873 and -0.4029 and 0.4865 and 2.831 and -0.3159
- CD-3e (NOD.hALOX12 mice [2]; [6]): 4.049 and 3.547 and 4.013 and 3.889 and 3.319 and 3.27 and 3.43 and 3.812 and 3.482 and 3.738
- CTLA4 (NOD.hALOX12 mice [2]; [6]): 2.4212 and 3.583 and 2.587 and 3.2171 and 2.563 and 1.939 and 2.368 and 2.417 and 1.307 and 2.276
- F4/80 (NOD.hALOX12 mice [2]; [6]): 1.356 and 2.254 and 0.8327 and -0.1455 and 1.282 and 0.2536 and 0.7983 and 1.224 and 1.023 and -0.1728
- GZMB (NOD.hALOX12 mice [2]; [6]): 6.733 and 6.076 and 5.882 and 4.529 and 3.344 and 4.352 and 4.4072 and 5.2506 and 2.9798 and 5.432
- PD-1 (NOD.hALOX12 mice [2]; [6]): -0.5413 and -0.07496 and 0.52 and -0.1742 and 0.5415 and -0.3236 and 0.1793 and 1.041 and 1.538 and -1.244
- PD-L1 (NOD.hALOX12 mice [2]; [6]): 2.371 and 2.045 and 2.4831 and 1.059 and 0.2909 and 1.897 and 1.722 and 1.56 and 0.2193 and 1.6509
- Ki67 (NOD.hALOX12 mice [2]; sheet SFig 2B, individual regions of interest): 1.4 and 1.3004
- Blood glucose levels vs vehicle in established diabetes (NOD.hALOX12 mice [3]): relative reductions in blood glucose levels
- Reversal of established diabetes (NOD.hALOX12 mice [3]): did not observe a reversal in diabetes

Source: PMC11665553, “12-Lipoxygenase inhibition delays onset of autoimmune diabetes in human gene replacement mice” (JCI Insight, 2024)
